Test results: paper PMC9221371, “Flavonoid Derivatives as Potential Cholinesterase Inhibitors in Scopolamine-Induced Amnesic Mice: An In Vitro, In Vivo and Integrated Computational Approach” (Brain Sciences, 2022)
Read-outs that look alike come from different tables or passages of the source.

Tests used:
[1] = test system: scopolamine-induced amnesic mice; assay: Y-Maze Paradigm, spontaneous alternation in scopolamine-induced amnesic model; format: in vivo, Balb/C mice; settings: for Spontaneous Alternation Performance: scopolamine 1 mg/kg i.p., n = 8
Excerpt: (§1) For assessment of acute toxicity of the flavones (F1–F5), animals (21 in number) were divided into groups of 3 animals each. The reported protocols by Lorke were followed with slight modification to perform tests in two phases. In the first phase, one (control) group of animals were given Tween-80 (2%), and oral doses of F1–F5 were given to the remaining groups, respectively, at various doses (mg/kg body weight). […] The animals were housed in plastic cages. After two weeks, the animals were sacrificed by euthanasia with isoflurane in a humane manner for assessment of the effects on total weight and weight of the vital organs. The biochemical parameters of blood and histological studies of vital organs (kidney and liver tissue) were also assessed. […] The preliminary pharmacological activity was assessed at various dose concentrations of F1–F5 (2.5–20 mg/kg b.w.) to determine the effective dose for assessment of cognitive function using animal models.
(§2) The animals in the control (normal) and scopolamine amnesic groups were administered vehicle (Tween-80, 2%) only. Treated animals received F1–F5 suspended in Tween-80 (2%) p.o. at their respective doses for a period of 4 weeks. […] For assessing behavioral effects using the Y-Maze Paradigm and novel object discrimination (NOD) task, scopolamine (1 mg/kg, i.p.) was given to the different groups, 30 min after the respective treatments, to induce memory impairment (amnesia) in mice. All of the tests were performed between 8:00 a.m. and 6:00 p.m. to avoid sham results in the performance of the animals.
(§3) Behavioral tasks on the Y-Maze Paradigm and “NOD” tasks were conducted in the 5th week of study to determine learning and memory functions. The apparatus arena was cleaned with 70% ethanol during the inter-trial interval to prevent a confounding error due to the influence of odor [20, 21].
The Y-Maze task is a non-invasive and reliable behavioral test that was used for memory assessment of spontaneous alternation for F1–F5 based on previously reported protocols. A single session of Y-Maze was used to record the spontaneous alternation behavior of the animals to determine exploratory behavior and instant memory functioning. The apparatus was made of three arms in a “Y” shape (35 cm × 8 cm × 15 cm) with an equilateral triangular central area. In brief, each of the mice, previously naive to the maze, was placed at the terminal end of one arm. The animals were allowed to move and explore freely for 8 min through the maze. The number of arm entries was noted. One arm entry was considered when the hind paws of the animal were completely placed inside the arm, and the series of arm entries were documented. The spontaneous alternation in percent was calculated.

[2] = biological target: T1, AChE (electric eel type-VI-S) (Electrophorus electricus, UniProt O42275); assay: biochemical; settings: 25 °C, triplicate
T1 construct: purchased Sigma-Aldrich (Taufkirchen, Germany)
T1 sequence (O42275 24-633): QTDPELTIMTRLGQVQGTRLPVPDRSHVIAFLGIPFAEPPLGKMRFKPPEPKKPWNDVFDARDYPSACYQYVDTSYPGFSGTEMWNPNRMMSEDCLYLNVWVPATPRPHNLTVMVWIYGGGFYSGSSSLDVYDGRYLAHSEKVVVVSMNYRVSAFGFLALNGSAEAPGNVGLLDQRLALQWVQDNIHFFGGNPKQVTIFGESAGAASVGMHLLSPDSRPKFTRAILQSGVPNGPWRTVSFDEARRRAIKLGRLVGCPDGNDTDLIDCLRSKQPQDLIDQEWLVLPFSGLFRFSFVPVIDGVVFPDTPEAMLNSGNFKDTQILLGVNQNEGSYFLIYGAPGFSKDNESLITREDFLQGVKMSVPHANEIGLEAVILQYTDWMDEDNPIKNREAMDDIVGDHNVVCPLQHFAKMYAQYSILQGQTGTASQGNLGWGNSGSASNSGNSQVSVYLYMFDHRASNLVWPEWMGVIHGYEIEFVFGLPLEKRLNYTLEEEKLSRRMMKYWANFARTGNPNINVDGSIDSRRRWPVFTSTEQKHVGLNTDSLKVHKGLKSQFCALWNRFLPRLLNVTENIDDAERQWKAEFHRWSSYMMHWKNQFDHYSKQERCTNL
Description: (§4) Synthetic flavonoids F1–F5 previously synthesized by our group were used in the study.
(§5) For the determination of acetylcholinesterase inhibitory potentials, AChE and BuChE were used. […] To the tube were added DTNB (100 µL) and buffer (2.4 mL). The tube was incubated at 25 °C for 5 min as pre-incubation. The reaction was started by adding ATChI (40 µL), and the mixture was incubated at 25 °C for 20 min. The absorbance at 412 nm was measured spectrophotometrically in triplicate. […] The data were recorded in triplicate, and IC50 was calculated.

[3] = biological target: T2, BuChE (equine serum lyophilized) (Equus caballus, UniProt P81908); assay: biochemical; settings: triplicate; read-out: BChE IC50 (converted)
T2 construct: purchased Sigma-Aldrich (Taufkirchen, Germany); host or cells: equine serum
T2 sequence (P81908 whole entry): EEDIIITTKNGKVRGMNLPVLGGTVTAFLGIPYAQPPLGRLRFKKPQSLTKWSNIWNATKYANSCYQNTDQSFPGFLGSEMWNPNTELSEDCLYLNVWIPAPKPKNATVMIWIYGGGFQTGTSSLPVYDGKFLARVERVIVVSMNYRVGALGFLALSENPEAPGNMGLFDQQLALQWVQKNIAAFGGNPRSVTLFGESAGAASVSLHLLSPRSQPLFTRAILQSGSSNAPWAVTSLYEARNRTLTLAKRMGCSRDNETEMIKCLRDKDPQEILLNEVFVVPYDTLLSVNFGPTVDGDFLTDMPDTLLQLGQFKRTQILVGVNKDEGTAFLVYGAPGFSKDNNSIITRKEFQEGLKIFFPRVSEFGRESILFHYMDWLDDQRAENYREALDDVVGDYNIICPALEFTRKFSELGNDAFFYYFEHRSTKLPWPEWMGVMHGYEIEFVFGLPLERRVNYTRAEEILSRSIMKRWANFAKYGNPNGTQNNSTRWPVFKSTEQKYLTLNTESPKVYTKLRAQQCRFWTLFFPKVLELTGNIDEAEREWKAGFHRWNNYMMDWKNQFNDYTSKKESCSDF
Description: as §4, §5

[4] = test system: brains of scopolamine-induced amnesic mice; assay: Antioxidant enzyme activities and oxidative stress markers in brain homogenate; format: in vivo, Balb/C mice
Description: as §2
(§6) The brain was extracted, and a homogenate (10% w/v) in 0.1 M of phosphate buffer (pH 7.4) was prepared by centrifugation for the assessment of brain oxidative status and estimating brain acetylcholinesterase activity. Catalase (CAT), superoxide dismutase (SOD), glutathione (GSH) and level of lipid peroxidation (malondialdehyde, MDA) were quantified as oxidative stress markers.

[5] = test system: scopolamine-induced amnesic mice; assay: Novel object discrimination (NOD) task in scopolamine-induced amnesic model; format: in vivo, Balb/C mice; settings: scopolamine 1 mg/kg i.p., n = 8
Description: as §2, §3
Animals were challenged for the novel object discrimination task for F1–F5 as per previously reported protocols. After habituation and acclimatization, animals in each group had two consecutive object exploration trials (5 min each) for this test, with a break of 4 h in between two trials. In the familiarization phase (sample), the animals were challenged to explore two objects similar to each other. In the second phase (test), any of the two objects was changed by a new object. Exploration time in sec for the objects, including chewing, licking, sniffing or pointing the vibrissae of nose towards the object, was recorded. The discrimination ratio (%DI) was then determined using:(T novel object − T familiar object)/(T novel object + T familiar object) × 100(1)

Balb/C mice = assay: Acute toxicity study; format: in vivo; settings: n = 3; for ALP / AST / Creatinine / Glucose / Total Cholesterol / Triglyceride: blood; for Kidney Weight / Liver Weight / Total Weight: mice
Excerpt: Two weeks before the experiment, the animals were acclimatized to laboratory conditions.
as §1

[6] = biological target: T3, brain acetylcholinesterase (Mus musculus, UniProt P21836); format: in vivo; parameters: unit not given here; settings: brain homogenate, n = 8
T3 construct: The brain was extracted, and a homogenate (10% w/v) in 0.1 M of phosphate buffer (pH 7.4) was prepared; from tissue; host or cells: mouse brain homogenate
T3 sequence (P21836 32-614): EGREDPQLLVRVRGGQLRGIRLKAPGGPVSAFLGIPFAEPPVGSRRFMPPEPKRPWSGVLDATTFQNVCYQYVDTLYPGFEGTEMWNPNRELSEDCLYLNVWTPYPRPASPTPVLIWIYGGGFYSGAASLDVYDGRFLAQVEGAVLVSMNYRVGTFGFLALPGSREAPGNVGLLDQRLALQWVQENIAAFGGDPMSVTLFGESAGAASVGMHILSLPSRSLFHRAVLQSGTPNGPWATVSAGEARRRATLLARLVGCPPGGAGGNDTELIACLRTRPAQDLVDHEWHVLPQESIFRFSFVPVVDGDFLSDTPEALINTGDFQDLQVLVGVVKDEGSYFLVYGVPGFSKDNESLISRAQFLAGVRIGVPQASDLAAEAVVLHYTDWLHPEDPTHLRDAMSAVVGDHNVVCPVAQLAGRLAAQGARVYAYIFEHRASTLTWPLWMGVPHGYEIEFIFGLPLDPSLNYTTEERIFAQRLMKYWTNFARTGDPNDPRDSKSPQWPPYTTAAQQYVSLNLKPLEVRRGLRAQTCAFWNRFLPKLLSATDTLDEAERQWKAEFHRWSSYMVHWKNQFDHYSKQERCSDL
Description: as §2, §6

[7] = 7.5 mg/kg b.w., n = 8, 7.5 mg/kg

O=c1cc(-c2ccc(Cl)cc2Cl)oc2ccccc12 [Compound F2]
Spontaneous Alternation Performance ([1]; 7.5 mg/kg b.w. p.o. 4 weeks): 47.13 ± 1.65% | Spontaneous Alternation Performance ([1]; 15 mg/kg b.w. p.o. 4 weeks): 49.88 ± 1.28% | IC50 [2]: 451 µM | IC50 [3]: 361 µM | CAT ([4]; 7.5 mg/kg b.w., n = 8): 22.83 ± 1.19 U/mg of Protein | GSH ([4]; 7.5 mg/kg b.w., n = 8): 34.93 ± 1.22 μg/mg of Protein | MDA ([4]; 7.5 mg/kg b.w., n = 8): 15.16 ± 1.21 nmol/mg Protein | SOD ([4]; 7.5 mg/kg b.w., n = 8): 9.25 ± 1.36 U/mg of Protein | CAT ([4]; 15 mg/kg b.w., n = 8): 23.71 ± 1.45 U/mg of Protein | GSH ([4]; 15 mg/kg b.w., n = 8): 35.91 ± 1.39 μg/mg of Protein | MDA ([4]; 15 mg/kg b.w., n = 8): 14.90 ± 1.33 nmol/mg Protein | SOD ([4]; 15 mg/kg b.w., n = 8): 9.33 ± 1.45 U/mg of Protein

O=c1cc(-c2cc(Cl)ccc2Cl)oc2ccccc12 [Compound F5]
Spontaneous Alternation Performance ([1]; 7.5 mg/kg b.w. p.o. 4 weeks): 67.94 ± 1.51% | Spontaneous Alternation Performance ([1]; 15 mg/kg b.w. p.o. 4 weeks): 73.11 ± 1.63% | Spontaneous alternation performance (preliminary, selection of doses) ([1]; Table S1, dose 2.5 mg/kg b.w.): 38.63±1.78 | Spontaneous alternation performance (preliminary, selection of doses) ([1]; Table S1, dose 5 mg/kg b.w.): 43.87±1.94 | Spontaneous alternation performance (preliminary, selection of doses) ([1]; Table S1, dose 7.5 mg/kg b.w.): 66.53±1.89 | Spontaneous alternation performance (preliminary, selection of doses) ([1]; Table S1, dose 10 mg/kg b.w.): 66.97±1.72 | Spontaneous alternation performance (preliminary, selection of doses) ([1]; Table S1, dose 12.5 mg/kg b.w.): 67.33±2.05 | discrimination index (%DI) ([5]; 7.5 mg/kg b.w. p.o. 4 weeks): 59.76 ± 1.24% | discrimination index (%DI) ([5]; 15 mg/kg b.w. p.o. 4 weeks): 62.12 ± 1.28% | IC50 [2]: 338 µM | IC50 [3]: 376 µM | GSH ([4]; 7.5 mg/kg b.w., n = 8): 37.28 ± 1.60 μg/mg of Protein | MDA ([4]; 7.5 mg/kg b.w., n = 8): 14.98 ± 1.22 nmol/mg Protein | CAT [4, 7]: 24.18 ± 1.41 U/mg of Protein | SOD [4, 7]: 9.88 ± 1.49 U/mg of Protein | GSH ([4]; 15 mg/kg b.w., n = 8): 39.01 ± 1.39 μg/mg of Protein | MDA ([4]; 15 mg/kg b.w., n = 8): 14.48 ± 1.38 nmol/mg Protein | CAT ([4]; 15 mg/kg b.w., n = 8, 15 mg/kg): 24.91 ± 1.29 U/mg of Protein | SOD ([4]; 15 mg/kg b.w., n = 8, 15 mg/kg): 10.20 ± 1.62 U/mg of Protein | ALP (Balb/C mice; 600 mg/kg b.w. oral): 134.41 ± 2.81 U/L | AST (Balb/C mice; 600 mg/kg b.w. oral): 108.37 ± 1.97 U/L | Creatinine (Balb/C mice; 600 mg/kg b.w. oral): 0.28 ± 0.04 mg/dL | Glucose (Balb/C mice; 600 mg/kg b.w. oral): 86.98 ± 2.12 mg/dL | Total Cholesterol (Balb/C mice; 600 mg/kg b.w. oral): 102.91 ± 1.93 mg/dL | Triglyceride (Balb/C mice; 600 mg/kg b.w. oral): 95.31 ± 2.61 mg/dL | Kidney Weight (Balb/C mice; 600 mg/kg b.w. oral): 0.30 ± 0.21 g | Liver Weight (Balb/C mice; 600 mg/kg b.w. oral): 1.24 ± 0.25 g | Total Weight (Balb/C mice; 600 mg/kg b.w. oral): 20.97 ± 1.66 g | ALP (Balb/C mice; 1000 mg/kg b.w. oral): 135.87 ± 2.24 U/L | AST (Balb/C mice; 1000 mg/kg b.w. oral): 107.41 ± 2.03 U/L | Creatinine (Balb/C mice; 1000 mg/kg b.w. oral): 0.35 ± 0.05 mg/dL | Glucose (Balb/C mice; 1000 mg/kg b.w. oral): 87.01 ± 2.21 mg/dL | Total Cholesterol (Balb/C mice; 1000 mg/kg b.w. oral): 103.02 ± 1.79 mg/dL | Triglyceride (Balb/C mice; 1000 mg/kg b.w. oral): 96.08 ± 2.01 mg/dL | Kidney Weight (Balb/C mice; 1000 mg/kg b.w. oral): 0.31 ± 0.24 g | Liver Weight (Balb/C mice; 1000 mg/kg b.w. oral): 1.22 ± 0.29 g | Total Weight (Balb/C mice; 1000 mg/kg b.w. oral): 21.88 ± 1.89 g | ALP (Balb/C mice; 2000 mg/kg b.w. oral): 133.91 ± 3.71 U/L | AST (Balb/C mice; 2000 mg/kg b.w. oral): 108.39 ± 1.89 U/L | Creatinine (Balb/C mice; 2000 mg/kg b.w. oral): 0.33 ± 0.06 mg/dL | Glucose (Balb/C mice; 2000 mg/kg b.w. oral): 86.89 ± 1.98 mg/dL | Total Cholesterol (Balb/C mice; 2000 mg/kg b.w. oral): 102.73 ± 2.10 mg/dL | Triglyceride (Balb/C mice; 2000 mg/kg b.w. oral): 95.37 ± 1.98 mg/dL | Kidney Weight (Balb/C mice; 2000 mg/kg b.w. oral): 0.29 ± 0.20 g | Liver Weight (Balb/C mice; 2000 mg/kg b.w. oral): 1.26 ± 0.21 g | Total Weight (Balb/C mice; 2000 mg/kg b.w. oral): 22.91 ± 1.67 g | ALP (Balb/C mice; 3000 mg/kg b.w. oral): 134.02 ± 3.28 U/L | AST (Balb/C mice; 3000 mg/kg b.w. oral): 107.76 ± 1.92 U/L | Creatinine (Balb/C mice; 3000 mg/kg b.w. oral): 0.30 ± 0.04 mg/dL | Glucose (Balb/C mice; 3000 mg/kg b.w. oral): 85.34 ± 2.01 mg/dL | Total Cholesterol (Balb/C mice; 3000 mg/kg b.w. oral): 103.09 ± 1.83 mg/dL | Triglyceride (Balb/C mice; 3000 mg/kg b.w. oral): 96.50 ± 2.05 mg/dL | Kidney Weight (Balb/C mice; 3000 mg/kg b.w. oral): 0.30 ± 0.19 g | Liver Weight (Balb/C mice; 3000 mg/kg b.w. oral): 1.23 ± 0.25 g | Total Weight (Balb/C mice; 3000 mg/kg b.w. oral): 22.65 ± 1.91 g | level of AChE ([6]; 7.5 mg/kg b.w.): 15.34 ± 0.69 | level of AChE ([6]; 15 mg/kg b.w.): 14.67 ± 0.67
